Test results published in patent US8377944B2, “Thienopyrimidine derivatives” (ASKA Pharmaceutical Co., Ltd., priority 2005, dated 2013).

Assays:
[1] = tested on: model of urethral obstruction with the guinea pigs; assay: Dysuria pathological model (urethral obstruction), cystometry; type: in vivo, guinea pig; conditions: for Frequency of non-voiding contraction, pre-administration / Residual urine volume, pre-administration: baseline before administration; for Frequency of non-voiding contraction, pre-administration / Residual urine volume, pre-administration / Frequency of non-voiding contraction, post-administration / Residual urine volume, post-administration: mean; for Frequency of non-voiding contraction, post-administration / Residual urine volume, post-administration: up to 30 min after administration; for Frequency of non-voiding contraction, quantitative change / Residual urine volume, quantitative change: post minus pre
Description: (3) Investigation of PDE9 Inhibitory Activity on Dysuria Pathological Model
Three to four weeks old female Hartley strain guinea pigs (Nippon SLC) were laparotomized under anesthesia with pentobarbital (30 mg/kg i.p.), and a polyethylene tube of 1.4 mm in width and 2.0 mm in inner diameter was placed in each guinea pig's urethra to the distal side by 1-2 mm from the bladder neck. After closing the incision, the guinea pigs were reared for at least 3 weeks to provide a model of urethral obstruction with the guinea pigs in which rise in intravesical pressure not accompanied by voiding (non-voiding contraction) and residual urine were induced.
The model was catheterized under anesthesia with urethane (1 g/kg i.p.) at the apex of urinary bladder and right jugular vein for cystometrography and intravenous administration, respectively. The other end of the bladder catheter was connected to a pressure transducer and infusion pump through three way stopcock. By means of the infusion pump, physiological saline was continuously infused into the bladder at a rate of 0.4 mL/min to induce micturition reflex. Immediately after the micturition reflex was induced, the physiological saline infusion into the bladder was stopped. The intravesical pressure at the time the micturition occurred was measured with the pressure transducer and the cystometrogram was recorded with pen recorder. The urine voided was collected with a disposable type weighing dish to measure its weight. Further the physiological saline remained in the bladder was sucked with syringe through the bladder catheter to measure the residual urine volume. Multiple operation cycles (normally 4 times) of suspending physiological saline infusion when micturition reflex was induced and resuming the infusion after about 1 minute to induce next micturition reflex, were repeated to stabilize the voiding response.
Also the frequency of non-voiding contraction occurred during the operations was measured. The respective mean values of frequency of non-voiding contraction and residual urine volume in the experiment using several guinea pigs are shown in the following Table B.

[2] = biological target: T1, human recombinant PDE9 protein (Homo sapiens, UniProt O76083); assay: Measurement of PDE9-inhibiting activity; type: biochemical; conditions: human recombinant PDE9, [3H]-cGMP substrate; read-out: Inhibitory Activity (IC50 value) PDE 9
T1 construct: made in house; host or cells: COS-1 cells, transient transfection of pcDNA 3.1(+); supernatant of the cell homogenate
T1 sequence (O76083 whole entry): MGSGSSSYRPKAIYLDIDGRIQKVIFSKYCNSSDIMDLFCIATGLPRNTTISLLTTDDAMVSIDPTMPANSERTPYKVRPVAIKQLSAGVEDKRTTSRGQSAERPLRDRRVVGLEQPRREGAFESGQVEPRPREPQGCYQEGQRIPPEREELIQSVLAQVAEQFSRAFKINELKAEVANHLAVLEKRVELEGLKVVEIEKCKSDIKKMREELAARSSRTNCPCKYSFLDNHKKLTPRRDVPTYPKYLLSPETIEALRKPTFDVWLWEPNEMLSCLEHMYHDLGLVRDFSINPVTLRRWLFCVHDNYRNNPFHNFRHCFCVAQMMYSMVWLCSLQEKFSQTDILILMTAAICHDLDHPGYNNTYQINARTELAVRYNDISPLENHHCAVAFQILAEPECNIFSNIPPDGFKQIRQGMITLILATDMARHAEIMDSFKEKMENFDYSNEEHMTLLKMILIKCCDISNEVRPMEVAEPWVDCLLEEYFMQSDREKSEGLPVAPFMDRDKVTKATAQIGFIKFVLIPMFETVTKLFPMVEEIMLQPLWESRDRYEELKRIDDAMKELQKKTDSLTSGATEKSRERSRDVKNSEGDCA
From the text: (1) Measurement of PDE9-Inhibiting Activity:
1) Preparation of Human Recombinant PDE9 Protein
Based on the base sequence of hsPDE9A1 registered with GenBank database (accession No.: AF048837), hsPDE9A1 fragment was amplified by polymerase chain reaction under the following conditions, using the following sequence (Amasham Pharmacia Biotech) as the primer and Human Prostate […] cDNA library (CLONTECH) as the template DNA, with Pfu Turbo DNA polymerase ([…]):
hPDE9-5A primer: […] [SEQ ID NO: 1]
hPDE9-3A primer: […] [SEQ ID NO: 2]
PCR condition: [95° C., 5 min]×1 cycle, [(95° C., 1 min), (58° C., 2 min), (72° C., 3 min)]×25 cycle, [72° C., 10 min]×1 cycle
Thus obtained hsPDE9A1 fragment was given a restricted enzymatic treatment with NheI and NotI, and thereafter inserted into pcDNA 3.1(+) expression vector (Invitrogen) to let it serve as a human PDE9 expression vector.
Human PDE9 expression vector-transformed Escherichia coli was mass incubated to produce a large amount of PDE9 expression vector, which was transiently transfected into COS-1 cells, with LIPOFECTAMINE 2000 Reagent (GIBCO). […]
To 150 μL of buffer B (70 mmol/L Tris-HCl, pH7.5; 16.7 mmol/L MgCl2, 33.3 nmol/L [^3H]-cGMP) solution containing [^3H]-cGMP (specific activity=244.2 GBq/mmol) at a concentration of 33.3 nmol/L, 50 μL of a solution of the compound to be evaluated (formed by dissolving the compound in DMSO and diluting it with distilled water to DMSO concentration of 5%) and 50 μL of the PDE9 protein solution as prepared in the above, as diluted with buffer C (40 mmol/L Tris-HCl, pH7.5, 15 mmol/L benzamidine, 15 mmol/L 2-mercaptoethanol, 1 μg/mL Pepstatin A, 1 μg/mL Leupeptin) by 1,500×, were added under cooling with ice. […] Thereafter [^3H]-guanosine was eluted with 3 mL of 3 mol/L aqueous ammonia and its radiation activity was measured with liquid scintillation counter.
PDE9 inhibition of the tested compound can be calculated by the following formula: […]
From the inhibition ratios at various concentration levels of each tested compound, its IC50 value against PDE9 was determined.

[3] = biological target: T2, human recombinant PDE5 protein (Homo sapiens, UniProt O76074); assay: Measurement of PDE5-inhibiting activity; type: biochemical; conditions: human recombinant PDE5, [3H]-cGMP substrate; read-out: Inhibitory Activity (IC50 value) PDE 5
T2 construct: made in house; host or cells: COS-1 cells, transient transfection of pcDNA 3.1(+); supernatant of the cell homogenate
From the text: (2) Measurement of PDE5-Inhibiting Activity:
1) Preparation of Human Recombinant PDE5 Protein
Based on the base sequence of hsPDE5A1 registered with GenBank database (accession No.: NM_001083), hsPDE5A1 fragment was amplified by polymerase chain reaction under the following conditions, using the following sequence (SIGMA GENOSYS) as the primer and Human Prostate […] cDNA library (CLONTECH) as the template DNA, with KDD plus DNA polymerase (TOYOBO): […]
hPDE5-5′E primer: […] [SEQ ID NO: 3] […]
hPDE5-3′ primer: […] [SEQ ID NO: 4]
PCR condition: [94° C., 2 min]×1 cycle, [(94° C., 30 sec), (65° C., 30 sec), (68° C., 3 min)]×25 cycle, [68° C., 6 min]×1 cycle Thus obtained hsPDE5A1 fragment was given a restricted enzymatic treatment with XBaI and EcoRI, and thereafter inserted into pcDNA 3.1(+) expression vector (Invitrogen) to let it serve as a human PDE5 expression vector.
Human PDE5 expression vector-transformed Escherichia coli was mass incubated to produce a large amount of PDE5 expression vector, which was transiently transfected into COS-1 cells, with LIPOFECTAMINE 2000 Reagent (GIBCO). The cells were homogenized in ice-cooled buffer A and centrifuged at 4° C., 14,000×g for 10 minutes. The supernatant was isolated to provide human recombinant PDE5 protein solution.
2) Measurement of PDE5-Inhibiting Activity
By a method similar to the measurement of PDE9-inhibiting activity, PDE5-inhibiting activity of the test compounds was measured, their inhibition was calculated and IC50 value to PDE5 of each of the compounds was determined. The results are shown in the following Table A, concurrently with the compounds' IC50 values against PDE9.

Molecule | Frequency of non-voiding contraction, pre-administration ([1]; 3 mg/kg i.v.) [count/min] | Residual urine volume, pre-administration ([1]; 3 mg/kg i.v.) [mL] | Frequency of non-voiding contraction, post-administration ([1]; 3 mg/kg i.v.) [count/min] | Frequency of non-voiding contraction, pre-administration ([1]; 10 mg/kg i.v.) [count/min] | Residual urine volume, pre-administration ([1]; 10 mg/kg i.v.) [mL] | Frequency of non-voiding contraction, post-administration ([1]; 10 mg/kg i.v.) [count/min] | Residual urine volume, post-administration ([1]; 10 mg/kg i.v.) [mL] | Frequency of non-voiding contraction, pre-administration ([1]; 0.3 mg/kg i.v.) [count/min] | Frequency of non-voiding contraction, post-administration ([1]; 0.3 mg/kg i.v.) [count/min] | other results
Cc1c(C(=O)O)sc2nc(Cc3ccc(Cl)c(Cl)c3)[nH]c(=O)c12 [Example 36, 2-(3,4-Dichlorobenzyl)-5-methyl-4-oxo-3,4-dihydrothieno-[2,3-d]pyrimidine-6-carboxylic acid] | 1.16 | 1.33 | 0.77 | 1.11 | 1.06 | 0.64 | 0.64 |  |  | Frequency of non-voiding contraction, pre-administration ([1]; 1 mg/kg i.v.): 0.96 count/min; Residual urine volume, pre-administration ([1]; 1 mg/kg i.v.): 0.82 mL; Frequency of non-voiding contraction, post-administration ([1]; 1 mg/kg i.v.): 0.79 count/min; Residual urine volume, post-administration ([1]; 1 mg/kg i.v.): 0.86 mL
O=C(O)c1cc2c(=O)[nH]c(Cc3cccc(Cl)c3)nc2s1 [Example 104, 2-(3-Chlorobenzyl)-4-oxo-3,4-dihydrothieno[2,3-d]pyrimidine-6-carboxylic acid] | 1.44 | 1.37 | 0.78 | 1.57 | 1.68 | 0.83 | 0.62 | 1.08 | 0.55 | Residual urine volume, pre-administration ([1]; 0.3 mg/kg i.v.): 1.54 mL; Frequency of non-voiding contraction, quantitative change ([1]; 0.3 mg/kg i.v.): −0.53 count/min; Residual urine volume, quantitative change ([1]; 0.3 mg/kg i.v.): -0.52 mL; Residual urine volume, post-administration ([1]; 0.3 mg/kg i.v.): 1.02 mL; Frequency of non-voiding contraction, quantitative change ([1]; 3 mg/kg i.v.): −0.66 count/min; Residual urine volume, quantitative change ([1]; 3 mg/kg i.v.): -0.49 mL; Residual urine volume, post-administration ([1]; 3 mg/kg i.v.): 0.88 mL; Frequency of non-voiding contraction, quantitative change ([1]; 10 mg/kg i.v.): −0.74 count/min; Residual urine volume, quantitative change ([1]; 10 mg/kg i.v.): -1.06 mL
Cc1c(C(=O)O)sc2nc(Cc3cccs3)[nH]c(=O)c12 [Example 2, 5-Methyl-4-oxo-2-(thiophen-2-ylmethyl)-3,4-dihydrothieno[2,3-d]pyrimidine-6-carboxylic acid] |  |  |  | 0.91 | 1.27 | 0.78 |  |  |  | Frequency of non-voiding contraction, pre-administration ([1]; 1 mg/kg i.v.): 0.91 count/min; Residual urine volume, pre-administration ([1]; 1 mg/kg i.v.): 1.27 mL; Frequency of non-voiding contraction, post-administration ([1]; 1 mg/kg i.v.): 0.47 count/min
Cc1c(C(=O)O)sc2nc(Cc3ccc(Cl)s3)[nH]c(=O)c12 [Example 3, 2-(5-Chlorothiophen-2-ylmethyl)-5-methyl-4-oxo-3,4-dihydrothieno[2,3-d]pyrimidine-6-carboxylic acid] |  |  |  |  |  |  |  |  |  | IC50 [2]: 34 nM; IC50 [3]: 6900 nM
2-(Cyclopent-1-enylmethyl)-5-methyl-4-thioxo-3,4-dihydrothieno[2,3-d]pyrimidine-6-carboxylic acid and 2-cyclopentylidenemethyl-5-methyl-4-thioxo-3,4-dihydrothieno-[2,3-d]pyrimidine-6-carboxylic acid [Example 117] |  |  |  |  |  |  |  |  |  | IC50 [2]: 24 nM; IC50 [3]: 843 nM
Cc1c(C(=O)O)sc2nc(Cc3cccc(Cl)c3)[nH]c(=S)c12 [Example 112, 2-(3-Chlorobenzyl)-5-methyl-4-thioxo-3,4-dihydrothieno-[2,3-d]pyrimidine-6-carboxylic acid] | 1.12 | 1.02 | 0.76 | 1.12 | 1.02 | 0.59 | 0.48 | 1.12 | 1.02 | Residual urine volume, post-administration ([1]; 0.3 mg/kg i.v.): 0.91 mL; Residual urine volume, post-administration ([1]; 3 mg/kg i.v.): 0.27 mL
Cc1c(C(=O)O)sc2nc(Cc3cccc(Cl)c3)[nH]c(=O)c12 [Example 10, 2-(3-Chlorobenzyl)-5-methyl-4-oxo-3,4-dihydrothieno-[2,3-d]pyrimidine-6-carboxylic acid] | 1.16 | 0.95 | 0.49 | 1.16 |  | 0.60 | 0.95 | 1.16 | 0.80 | Residual urine volume, pre-administration ([1]; 0.3 mg/kg i.v.): 0.95 mL
